pIC50: −log10 of the molar value.
Molecular target: T1, GST-Xa-hAAK1 (Homo sapiens, UniProt Q2M2I8)
T1 construct: GST (N); Factor Xa cleavage site (Xa) (internal); made in house
Assay: AAK1 Kinase Assay
Format: biochemical
Settings: bacterially expressed GST-Xa-hAAK1 3.5 nM; ATP 22 μM; fluoresceinated peptide 1.5 μM; 3 hours at room temperature; Caliper LabChip 3000
Protocol: The assays were performed in U-bottom 384-well plates. The final assay volume was 30 μl prepared from 15 μl additions of enzyme and substrates (fluoresceinated peptide (5-FAM)-Aha-[…]-NH2 and ATP) and test compounds in assay buffer (10 mM Tris-HCL pH 7.4, 10 mM MgCl2, 0.01% Tween-20 and 1.0 mM DTT). The reactions were initiated by the combination of bacterially expressed, GST-Xa-hAAK1 with substrates and test compounds. The reactions were incubated at room temperature for 3 hours and terminated by adding 60 μl of 35 mM EDTA buffer to each sample. The reactions were analyzed on the Caliper LabChip 3000 (Caliper, Hopkinton, Mass.) by electrophoretic separation of the fluorescent substrate and phosphorylated product. […] The final concentration of reagents in the assays are ATP, 22 μM; (5-FAM)-Aha-[…]-NH2, 1.5 μM; GST-Xa-hAAK1, 3.5 nM; and DMSO, 1.6%. […] Compounds were dissolved at 10 mM in dimethylsulfoxide (DMSO) and evaluated at eleven concentrations. IC50 values were derived by non-linear regression analysis.

T1 sequence (Q2M2I8 whole entry): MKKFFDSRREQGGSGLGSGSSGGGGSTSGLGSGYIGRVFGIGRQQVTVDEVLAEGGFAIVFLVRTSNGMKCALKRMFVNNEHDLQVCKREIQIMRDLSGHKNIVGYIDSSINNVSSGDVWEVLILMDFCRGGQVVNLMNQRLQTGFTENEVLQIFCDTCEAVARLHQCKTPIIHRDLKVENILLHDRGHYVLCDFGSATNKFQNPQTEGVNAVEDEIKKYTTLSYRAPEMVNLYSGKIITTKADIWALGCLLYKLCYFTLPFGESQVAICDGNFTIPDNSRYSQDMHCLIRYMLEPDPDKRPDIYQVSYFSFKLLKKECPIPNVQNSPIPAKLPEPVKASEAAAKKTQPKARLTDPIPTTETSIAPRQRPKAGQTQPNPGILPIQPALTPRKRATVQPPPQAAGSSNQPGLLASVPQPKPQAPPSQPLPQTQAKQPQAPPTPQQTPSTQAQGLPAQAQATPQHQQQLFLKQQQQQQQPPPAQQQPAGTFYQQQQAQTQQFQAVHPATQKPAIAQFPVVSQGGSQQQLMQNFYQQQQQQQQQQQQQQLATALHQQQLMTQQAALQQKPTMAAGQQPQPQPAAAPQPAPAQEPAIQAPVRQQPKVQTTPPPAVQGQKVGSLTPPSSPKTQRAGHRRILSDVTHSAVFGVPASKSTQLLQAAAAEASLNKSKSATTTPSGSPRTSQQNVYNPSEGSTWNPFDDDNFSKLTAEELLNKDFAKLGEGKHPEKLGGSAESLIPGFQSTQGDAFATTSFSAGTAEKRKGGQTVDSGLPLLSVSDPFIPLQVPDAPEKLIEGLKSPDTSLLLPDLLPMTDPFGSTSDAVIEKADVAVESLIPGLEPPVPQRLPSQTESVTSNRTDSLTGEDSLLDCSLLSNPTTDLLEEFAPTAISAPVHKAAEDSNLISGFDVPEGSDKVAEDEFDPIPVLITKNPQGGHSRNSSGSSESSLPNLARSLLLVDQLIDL

Structure (SMILES) | pIC50
CC(C)C[C@](C)(N)COc1ccc(-c2ncnc3[nH]ccc23)cc1C#N [Example 362, (S)-2-((2-amino-2,4-dimethylpentyl)oxy)-5-(7H-pyrrolo[2,3-d]pyrimidin-4-yl)benzonitrile] | 9.00
CC(C)C[C@](C)(N)COc1ccc(-c2ccnc(NC(=O)c3cnccn3)c2)cc1C(F)(F)F [Example 404, (S)—N-(4-(4-((2-amino-2,4-dimethylpentyl)oxy)-3-(trifluoromethyl)phenyl)pyridin-2-yl)pyrazine-2-carboxamide] | 9.15
CC(=O)NCC(=O)Nc1cc(-c2ccc(OC[C@@](C)(N)CC(C)C)c(C(F)(F)F)c2)ccn1 [Example 402, (S)-2-acetamido-N-(4-(4-((2-amino-2,4-dimethylpentyl)oxy)-3-(trifluoromethyl)phenyl)pyridin-2-yl)acetamide] | 9.30
CC(C)C[C@](C)(N)COc1ccc(-c2ccnc3ccn(C)c23)cc1C#N [Example 423, (S)-2-((2-amino-2,4-dimethylpentyl)oxy)-5-(1-methyl-1H-pyrrolo[3,2-b]pyridin-7-yl)benzonitrile] | 6.06
CC(C)C[C@](C)(N)COc1ccc(-c2ccnc(NC3CCCOC3)c2)cc1Cl (single isomer, unassigned) [Example 340] | 6.96
CC(C)C[C@](C)(N)COc1ccc(-c2ccnc3[nH]c(N)nc23)cc1C(F)(F)F [Example 255, (S)-7-(4-((2-amino-2,4-dimethylpentyl)oxy)-3-(trifluoromethyl)phenyl)-3H-imidazo [4,5-b]pyridin-2-amine] | 7.38
Cc1cc(-c2ccnc3c2C(=O)NC3)ccc1OC[C@@](C)(N)CC(C)C [Example 428, (S)-4-(4-((2-amino-2,4-dimethylpentyl)oxy)-3-methylphenyl)-6,7-dihydro-5H-pyrrolo[3,4-b]pyridin-5-one] | 7.89
Cc1csc(Nc2nccc(-c3ccc(OC[C@@](C)(N)CC(C)C)c(C#N)c3)n2)n1 [Example 380, (S)-2-((2-amino-2,4-dimethylpentyl)oxy)-5-(2-((4-methylthiazol-2-yl)amino)pyrimidin-4-yl)benzonitrile] | 9.00
Cc1csc(Nc2cc(-c3ccc(OC[C@@](C)(N)CC(C)C)c(Cl)c3)ccn2)n1 [Example 262, (S)—N-(4-(4-((2-amino-2,4-dimethylpentyl)oxy)-3-chlorophenyl)pyridin-2-yl)-4-methylthiazol-2-amine] | 8.72
Cc1nc2c(-c3ccc(OC[C@@](C)(N)CC(C)C)c(Cl)c3)ccnc2[nH]1 [Example 282, (S)-1-(2-chloro-4-(2-methyl-3H-imidazo[4,5-b]pyridin-7-yl)phenoxy)-2,4-dimethylpentan-2-amine] | 7.44
CC(C)C[C@](C)(N)COc1ccc(-c2ccnc3ccnn23)cc1C(F)F [Example 351, (S)-1-(2-(difluoromethyl)-4-(pyrazolo[1,5-a]pyrimidin-7-yl)phenoxy)-2,4-dimethylpentan-2-amine] | 9.40
CC(C)C[C@](C)(N)COc1ccc(-c2ccnc3ccnn23)nc1CF [Example 276, (S)-1-((2-(fluoromethyl)-6-(pyrazolo[1,5-a]pyrimidin-7-yl)pyridin-3-yl)oxy)-2,4-dimethylpentan-2-amine] | 9.05
CC(C)C[C@](C)(N)COc1ccc(-c2ccnc(NC(=O)c3cc(C(C)C)[nH]n3)c2)cc1C(F)(F)F [Example 409, (S)—N-(4-(4-((2-amino-2,4-dimethylpentyl)oxy)-3-(trifluoromethyl)phenyl)pyridin-2-yl)-5-isopropyl-1H-pyrazole-3-carboxamide] | 9.15
CC(C)C[C@](C)(N)COc1ccc(-c2ccnc(NCc3cccnc3)c2)cc1C(F)(F)F [Example 410, (S)-4-(4-((2-amino-2,4-dimethylpentyl)oxy)-3-(trifluoromethyl)phenyl)-N-(pyridin-3-ylmethyl)pyridin-2-amine] | 8.44
CC(C)C[C@](C)(N)COc1ccc(-c2ccnc(NC(=O)CCC3CCCC3)c2)cc1C(F)(F)F [Example 393, (S)—N-(4-(4-((2-amino-2,4-dimethylpentyl)oxy)-3-(trifluoromethyl)phenyl)pyridin-2-yl)-3-cyclopentylpropanamide] | 8.14
CC(C)C[C@](C)(N)COc1ccc(-c2ccnc(NC(=O)c3ccc(Br)o3)c2)cc1C(F)(F)F [Example 401, (S)—N-(4-(4-((2-amino-2,4-dimethylpentyl)oxy)-3-(trifluoromethyl)phenyl)pyridin-2-yl)-5-bromofuran-2-carboxamide] | 9.22
CC(C)C[C@](C)(N)COc1ccc(-c2ccnc(NC3CCC(F)C3)c2)cc1Cl (stereo partly drawn) [Example 334, 4-(4-(((S)-2-amino-2,4-dimethylpentyl)oxy)-3-chlorophenyl)-N-(3-fluorocyclopentyl)pyridin-2-amine] | 7.82
CC(C)C[C@](C)(N)COc1ccc(-c2ncnc3[nH]ccc23)cc1Cl [Example 361, (S)-1-(2-chloro-4-(7H-pyrrolo[2,3-d]pyrimidin-4-yl)phenoxy)-2,4-dimethylpentan-2-amine] | 8.77
CC(C)C[C@](C)(N)COc1ccc(-c2ccnc3c2C(=O)N(C)C3)cc1C#N [Example 414, (S)-2-((2-amino-2,4-dimethylpentyl)oxy)-5-(6-methyl-5-oxo-6,7-dihydro-5H-pyrrolo[3,4-b]pyridin-4-yl)benzonitrile] | 7.33
Cc1cc(-c2ccnc(NC3CCOC3)c2)ccc1OC[C@@](C)(N)CC(C)C (stereo partly drawn) [Example 346, 4-(4-(((S)-2-amino-2,4-dimethylpentyl)oxy)-3-methylphenyl)-N-(tetrahydrofuran-3-yl)pyridin-2-amine] | 7.64
CC(C)C[C@](C)(N)COc1ccc(-c2ccnc(NCc3ccco3)c2)cc1C(F)(F)F [Example 411, (S)-4-(4-((2-amino-2,4-dimethylpentyl)oxy)-3-(trifluoromethyl)phenyl)-N-(furan-2-ylmethyl)pyridin-2-amine] | 8.96

Next, values leading:

pIC50 | Structure (SMILES)
7.18 | Cc1cn2nc(Cl)cc(-c3ccc(OC[C@@](C)(N)CC(C)C)c(C(F)(F)F)c3)c2n1 [Example 495, (S)-1-(4-(6-chloro-2-methylimidazo [1,2-b]pyridazin-8-yl)-2-(trifluoromethyl)phenoxy)-2,4-dimethylpentan-2-amine]
8.57 | CC(C)C[C@](C)(N)COc1ccc(-c2ccnc3cc(C4CC4)nn23)cc1C(F)(F)F [Example 483, (S)-1-(4-(2-Cyclopropylpyrazolo[1,5-a]pyrimidin-7-yl)-2-(trifluoromethyl)phenoxy)-2,4-dimethylpentan-2-amine]
9.30 | Cc1cn2nccc(-c3ccc(OC[C@@](C)(N)CC(C)C)c(C(F)(F)F)c3)c2n1 [Example 498, (S)-2,4-dimethyl-1-(4-(2-methylimidazo[1,2-b]pyridazin-8-yl)-2-(trifluoromethyl)phenoxy)pentan-2-amine]
7.44 | CC(C)C[C@](C)(N)COc1ccc(-c2ccnc3c2C(=O)N(C)C3)cc1Cl [Example 429, (S)-4-(4-((2-amino-2,4-dimethylpentyl)oxy)-3-chlorophenyl)-6-methyl-6,7-dihydro-5H-pyrrolo[3,4-b]pyridin-5-one]
9.40 | Cc1cn2nccc(-c3ccc(OC[C@@](C)(N)CC(C)C)c(C(F)F)n3)c2n1 [Example 453, (S)-1-((2-(difluoromethyl)-6-(2-methylimidazo[1,2-b]pyridazin-8-yl)pyridin-3-yl)oxy)-2,4-dimethylpentan-2-amine]
6.90 | CC(C)C[C@](C)(N)COc1ccc(-c2ccnc(NC3CCCOC3)c2)cc1C(F)(F)F (single isomer, unassigned) [Example 476]
9.30 | Cc1cc(-c2ccnc3ccnn23)ccc1OC[C@@](C)(N)CC(C)C [Example 472, (S)-2,4-dimethyl-1-(2-methyl-4-(pyrazolo[1,5-a]pyrimidin-7-yl)phenoxy)pentan-2-amine]
6.86 | CC(C)C[C@](C)(N)COc1ccc(-c2ccnc(NC3CCNCC3)c2)cc1C(F)(F)F [Example 470, (S)-4-(4-(2-amino-2,4-dimethylpentyloxy)-3-(trifluoromethyl)phenyl)-N-(piperidin-4-yl)pyridin-2-amine]
6.41 | CC(C)C[C@](C)(N)COc1ccc(-c2cc(N)nc3ccnn23)c(F)c1 [Example 455, (S)-7-(4-((2-amino-2,4-dimethylpentyl)oxy)-2-fluorophenyl)pyrazolo[1,5-a]pyrimidin-5-amine]
8.85 | CC(C)C[C@](C)(N)COc1ccc(-c2ccnc3cc(C4CC4)nn23)cc1Cl [Example 482, (S)-1-(2-chloro-4-(2-cyclopropylpyrazolo[1,5-a]pyrimidin-7-yl)phenoxy)-2,4-dimethylpentan-2-amine]
8.20 | CC(C)C[C@](C)(N)COc1ccc(-c2ncnc3cc(F)c(F)cc23)cc1C(F)(F)F [Example 471, (S)-1-(4-(6,7-difluoroquinazolin-4-yl)-2-(trifluoromethyl)phenoxy)-2,4-dimethylpentan-2-amine]
7.43 | Cc1nc(-c2ccnc3ccnn23)ccc1OCC(N)(CC(C)C)C(F)(F)F (stereo not shown) [Example 490, 1,1,1-trifluoro-4-methyl-2-(((2-methyl-6-(pyrazolo[1,5-a]pyrimidin-7-yl)pyridin-3-yl)oxy)methyl)pentan-2-amine]
9.22 | CC(C)C[C@](C)(N)COc1ccc(-c2ccnc3ccnn23)cc1C#N [Example 460, (S)-2-((2-amino-2,4-dimethylpentyl)oxy)-5-(pyrazolo[1,5-a]pyrimidin-7-yl)benzonitrile]

Source: US10246469B2, “Biaryl kinase inhibitors” (BRISTOL-MYERS SQUIBB COMPANY, priority 2015, dated 2019)
